Key:
GPR17 [1] = biological target: T1, GPR17 (Homo sapiens, UniProt Q13304); experiment: Calcium mobilization functional assay (GPR17 Ca2+ assay); type: cell-based; set-up: host or cells: Flp-In T-REx CHO; conditions: CHO hGPR17 cells, inhibition of 50 nM MDL29,951, Calcium 5 dye, FLIPR; read-out: Ca2+ assay pIC50 (converted)
How it was run: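 pIC50 values were fitted with a 4-parameter logistic curve. They reflect test-compound inhibition of cytosolic Ca2+ release evoked by 50 nM MDL29,951, tracked as Calcium 5 fluorescence at room temperature. Cells were CHO Flp-In T-REx stably carrying human GPR17, induced with doxycycline 1 μg/mL for 16-20 h.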

GPR17 [2] = biological target: T1, GPR17; experiment: cAMP accumulation functional assay (HTRF, Schild analysis); type: cell-based; set-up: host or cells: Flp-In T-REx CHO; conditions: CHO hGPR17 cells, Schild analysis vs MDL29,951, 5 μM forskolin, read-out: cAMP assay pA2 (converted)
Method: Flp-In T-REx CHO cells stably expressing human GPR17 receptor (CHO hGPR17) from Evi Kostenis' lab (Bonn University, Germany) were cultured at 37° C. in a humidified atmosphere of 5% CO2. Cells were grown in DMEM with Nutrient Mixture F-12 supplemented with hygromycin B (500 μg/mL) and blasticidin (30 μg/mL). Expression from the Flp-In locus was induced by treatment with doxycycline (1 μg/mL) for 16-20 h prior assays.
GPR17 activation can also recruit Gi-type G-protein signaling, resulting in a decrease of intracellular cyclic adenosine monophosphate (cAMP). Intracellular cAMP changes can be measured using the HTRF cAMP dynamic assay kit from CisBio (Codolet, France). Using homogenous time-resolved fluorescence technology (HTRF), the assay is based on competition between native cAMP produced by cells and cAMP labelled with the dye d2. The tracer binding was determined by an anti-cAMP antibody labeled with cryptate.
CHO hGPR17 were detached with PBS containing EDTA and dispatched in black 384-well plates with 5,000 cells per well. Cells were first incubated for 30 minutes at room temperature in HBSS Hepes (pH 7.4) containing vehicle or varying concentrations of test GPR17 antagonist/inverse agonist compounds. […] After 60 minutes incubation at room temperature, the reaction is terminated and the cells lysed by adding the d2 detection reagent and the cryptate reagent in 10 μL lysis buffer each according to manufacturer's instructions. After 60 minutes incubation, changes in cAMP concentrations are measured according to manufacturer's instructions using an Envision plate reader with laser excitation. All incubations were performed in duplicate. Data was analyzed using GraphPad Prism software using the 4-parameter logistic equation to measure MDL29,951 pEC50s in absence and presence of GPR17 antagonist/inverse agonist test compounds. Dose ratio (DR) were plotted against antagonist concentrations and Schild analysis provided estimated affinity pA2 of GPR17 antagonist/inverse agonist test compounds.
The activities of the Example compounds tested are depicted in the table below. The activity ranges A, B and C refer to pA2 values in the cAMP assay as follows: “A”: pA2<7.5, “B”: pA2 7.5<x≤8.5, “C”: pA2>8.5.

T1 sequence (Q13304 whole entry): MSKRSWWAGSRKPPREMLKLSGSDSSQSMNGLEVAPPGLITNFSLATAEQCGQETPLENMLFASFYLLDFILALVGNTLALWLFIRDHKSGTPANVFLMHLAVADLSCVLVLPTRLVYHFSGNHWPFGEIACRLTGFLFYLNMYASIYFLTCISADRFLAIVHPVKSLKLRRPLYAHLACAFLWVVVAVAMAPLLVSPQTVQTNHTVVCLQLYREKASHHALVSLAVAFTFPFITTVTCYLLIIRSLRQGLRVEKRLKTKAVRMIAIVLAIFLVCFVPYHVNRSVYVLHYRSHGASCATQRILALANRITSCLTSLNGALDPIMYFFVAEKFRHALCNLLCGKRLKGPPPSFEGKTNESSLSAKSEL

| SMILES | IC50 (GPR17 [1]) | Kb (GPR17 [2]) |
| --- | --- | --- |
| O=S(=O)(Nc1cc(OC(F)F)c(Cl)cc1F)c1c[nH]c2cc(Cl)ccc12 [Compound I-195, 6-chloro-N-[4-chloro-5-(difluoromethoxy)-2-fluorophenyl]-1H-indole-3-sulfonamide] | 3.16 to 31.6 nM | < 3.16 nM |
| COc1cc(Cl)c(F)cc1NS(=O)(=O)c1c[nH]c2c1ccc1ccccc12 [Compound I-175, N-(4-chloro-5-fluoro-2-methoxyphenyl)-1H-benzo[g]indole-3-sulfonamide] | > 31.6 nM | 3.16 to 31.6 nM |
| O=S(=O)(Nc1ccc(F)cc1F)c1c[nH]c2nc(Br)ccc12 [Compound I-91, 6-bromo-N-(2,4-difluorophenyl)-1H-pyrrolo[2,3-b]pyridine-3-sulfonamide] | > 31.6 nM | > 31.6 nM |
| COc1nc(NS(=O)(=O)c2c[nH]c3cc(Cl)ccc23)c(F)cc1CC#N [Compound I-255, 6-chloro-N-[5-(cyanomethyl)-3-fluoro-6-methoxypyridin-2-yl]-1H-indole-3-sulfonamide] | < 3.16 nM | < 3.16 nM |
| CS(=O)(=O)c1c(Cl)ccc2c(S(=O)(=O)Nc3cc(F)c(Cl)cc3F)c[nH]c12 [Compound I-261, 6-chloro-N-(4-chloro-2,5-difluorophenyl)-7-(methylsulfonyl)-1H-indole-3-sulfonamide] | 3.16 to 31.6 nM | 3.16 to 31.6 nM |
| N#Cc1cc(F)c(NS(=O)(=O)c2c[nH]c3cc(C(F)(F)F)ccc23)cc1F [Compound I-184, N-(4-cyano-2,5-difluorophenyl)-6-(trifluoromethyl)-1H-indole-3-sulfonamide] | < 3.16 nM | < 3.16 nM |
| COCCOc1cc(F)c(NS(=O)(=O)c2c[nH]c3cc(Cl)ccc23)nc1F [Compound I-365, 6-chloro-N-[3,6-difluoro-5-(2-methoxyethoxy)pyridin-2-yl]-1H-indole-3-sulfonamide] | 3.16 to 31.6 nM | 3.16 to 31.6 nM |
| N#CCOc1cc(F)c(NS(=O)(=O)c2c[nH]c3c2ccc2cccnc23)cc1F [Compound I-360, N-[4-(cyanomethoxy)-2,5-difluorophenyl]-1H-pyrrolo[3,2-h]quinoline-3-sulfonamide] | < 3.16 nM | < 3.16 nM |
| COc1nc(NS(=O)(=O)c2c[nH]c3cc(Cl)c(Br)cc23)c(F)cc1CC#N [Compound I-324, 5-bromo-6-chloro-N-[5-(cyanomethyl)-3-fluoro-6-methoxypyridin-2-yl]-1H-indole-3-sulfonamide] | < 3.16 nM | < 3.16 nM |
| C[S+]([O-])c1ccc2c(S(=O)(=O)Nc3ccc(C#N)cc3)c[nH]c2c1 (centres unmarked) [Compound I-237, N-(4-cyanophenyl)-6-(methylsulfinyl)-1H-indole-3-sulfonamide] | > 31.6 nM | > 31.6 nM |
| COc1nc(NS(=O)(=O)c2c[nH]c3cc(N)ccc23)c(F)cc1CC#N [Compound I-352, 6-amino-N-[5-(cyanomethyl)-3-fluoro-6-methoxypyridin-2-yl]-1H-indole-3-sulfonamide] | 3.16 to 31.6 nM | 3.16 to 31.6 nM |
| N#Cc1ccc(NS(=O)(=O)c2c[nH]c3cc(Cl)ccc23)cc1Cl [Compound I-181, 6-chloro-N-(3-chloro-4-cyanophenyl)-1H-indole-3-sulfonamide] | 3.16 to 31.6 nM | 3.16 to 31.6 nM |
| O=S(=O)(Nc1ccc(Br)c(Cl)n1)c1c[nH]c2cc(Cl)ccc12 [Compound I-275, N-(5-bromo-6-chloropyridin-2-yl)-6-chloro-1H-indole-3-sulfonamide] | 3.16 to 31.6 nM | 3.16 to 31.6 nM |
| N#Cc1ccc(NS(=O)(=O)c2c[nH]c3cc(-c4cccnc4)ccc23)c(F)c1 [Compound I-229, N-(4-cyano-2-fluorophenyl)-6-(pyridin-3-yl)-1H-indole-3-sulfonamide] | 3.16 to 31.6 nM | 3.16 to 31.6 nM |
| CCc1cc(F)c(NS(=O)(=O)c2c[nH]c3cc(Cl)ccc23)nc1F [Compound I-338, 6-chloro-N-(5-ethyl-3,6-difluoropyridin-2-yl)-1H-indole-3-sulfonamide] | < 3.16 nM | < 3.16 nM |
| COc1nc(NS(=O)(=O)c2csc3cc(Cl)ccc23)c(F)cc1CC#N [Compound I-315, 6-chloro-N-[5-(cyanomethyl)-3-fluoro-6-methoxypyridin-2-yl]-1-benzothiophene-3-sulfonamide] | < 3.16 nM | < 3.16 nM |
| COc1cc(CC#N)c(F)nc1NS(=O)(=O)c1c[nH]c2cc(Cl)ccc12 [Compound I-350, 6-chloro-N-[5-(cyanomethyl)-6-fluoro-3-methoxypyridin-2-yl]-1H-indole-3-sulfonamide] | < 3.16 nM | < 3.16 nM |
| O=S(=O)(Nc1nc(F)c(Br)cc1F)c1c[nH]c2cc(Cl)ccc12 [Compound I-245, N-(5-bromo-3,6-difluoropyridin-2-yl)-6-chloro-1H-indole-3-sulfonamide] | < 3.16 nM | < 3.16 nM |
| O=S(=O)(Nc1cc(F)c(Cl)cc1F)c1c[nH]c2cc(Cl)c(Br)cc12 [Compound I-248, 5-bromo-6-chloro-N-(4-chloro-2,5-difluorophenyl)-1H-indole-3-sulfonamide] | 3.16 to 31.6 nM | 3.16 to 31.6 nM |
| O=S(=O)(Nc1ccc(S(F)(F)(F)(F)F)cc1F)c1c[nH]c2cc(Cl)ccc12 [Compound I-215, 6-chloro-N-[2-fluoro-4-(pentafluoro-lambda-6-sulfanyl)phenyl]-1H-indole-3-sulfonamide] | 3.16 to 31.6 nM | 3.16 to 31.6 nM |
| O=S(=O)(Nc1ccc2nsnc2c1)c1c[nH]c2nc(Cl)ccc12 [Compound I-179, N-(2,1,3-benzothiadiazol-5-yl)-6-chloro-1H-pyrrolo[2,3-b]pyridine-3-sulfonamide] | < 3.16 nM | 3.16 to 31.6 nM |
| O=S(=O)(Nc1cc2c(cc1F)OC(F)(F)O2)c1c[nH]c2nc(Cl)ccc12 [Compound I-225, 6-chloro-N-(2,2,6-trifluoro-1,3-benzodioxol-5-yl)-1H-pyrrolo[2,3-b]pyridine-3-sulfonamide] | > 31.6 nM | 3.16 to 31.6 nM |
| COc1nc(NS(=O)(=O)c2c[nH]c3c(F)c(Cl)ccc23)c(F)cc1CC#N [Compound I-354, 6-chloro-N-[5-(cyanomethyl)-3-fluoro-6-methoxypyridin-2-yl]-7-fluoro-1H-indole-3-sulfonamide] | < 3.16 nM | < 3.16 nM |
| N#Cc1ccc(NS(=O)(=O)c2c[nH]c3cc(Br)ccc23)cc1 [Compound I-134, 6-bromo-N-(4-cyanophenyl)-1H-indole-3-sulfonamide] | < 3.16 nM | < 3.16 nM |
| O=S(=O)(Nc1cc(F)c(Cl)cc1F)c1c[nH]c2cc(Br)cc(F)c12 [Compound I-251, 6-bromo-N-(4-chloro-2,5-difluorophenyl)-4-fluoro-1H-indole-3-sulfonamide] | 3.16 to 31.6 nM | 3.16 to 31.6 nM |
| COc1nc(NS(=O)(=O)c2c[nH]c3c2ccc2ccccc23)c(F)cc1Cl [Compound I-329, N-(5-chloro-3-fluoro-6-methoxypyridin-2-yl)-1H-benzo[g]indole-3-sulfonamide] | < 3.16 nM | < 3.16 nM |
| N#Cc1ccc(NS(=O)(=O)c2c[nH]c3nc(Br)ccc23)cc1 [Compound I-80, 6-bromo-N-(4-cyanophenyl)-1H-pyrrolo[2,3-b]pyridine-3-sulfonamide] | < 3.16 nM | 3.16 to 31.6 nM |
| O=S(=O)(Nc1ccc(Cl)cc1F)c1c[nH]c2nc(Br)ccc12 [Compound I-278, 6-bromo-N-(4-chloro-2-fluorophenyl)-1H-pyrrolo[2,3-b]pyridine-3-sulfonamide] | 3.16 to 31.6 nM | < 3.16 nM |
